Series [1] is described as follows: acute toxicity after intraperitoneal administration in rape oil. The following applies: mouse, in vivo, ip.
The test system of series [2] is papillomas induced with dimethyl-benzanthracene and croton oil. Put plainly: papilloma test: regression of tumors induced with dimethyl-benzanthracene and croton oil. The series is classed as in vivo. Particulars: mice, intraperitoneal, 400mg/kg/week, within two weeks. The protocol: The polyene compounds of formula I are useful in the topical and systemic prophylaxis and treatment of benignant and malignant neoplasias and premalignant lesions. The tumor-inhibiting activity of the polyene compounds of the invention is significant. […] The diameter of such papillomas in mice decreased by 55% within two weeks upon intraperitoneal administration of 400mg/kg/week of 9-(2,2,5,7,8-pentamethyl-chroman-6-yl)-3,7-dimethyl-nona-2,4,6,8-tetraen-1-oic acid.

What is called LD50 is the dose expected to kill half of the subjects tested.

In series [1], `CC(/C=C/c1c(C)c(C)c2c(c1C)CCC(C)(C)O2)=C\C=C\C(C)=C\C(=O)O` [9-(2,2,5,7,8-pentamethyl-chroman-6-yl)-3,7-dimethyl-nona-2,4,6,8-tetraen-1-oic acid] came in with an LD50 of 950 mg/kg, an LD50 at 24 h of over 4000 mg/kg, an LD50 at 240 h of 950 mg/kg and an LD50 at 480 h of 950 mg/kg. Moreover, the “decrease of diameter of papillomas” value in series [2] turned out to be 55%.

These data come from patent publication US3984440A, “Polyene compounds” (Hoffmann-La Roche Inc., priority 1973, dated 1976).
